The text below walks through data of publication PMC11294390 (Analytical and Bioanalytical Chemistry, 2024).

Like-named read-outs stand apart in the source and are kept apart here.

The test system of series [1] is HSA. The settings on record: equilibrium and dynamic dialysis; cited from earlier work.
Series [2] deals with human serum albumin (HSA) (Homo sapiens, UniProt P02768). The settings on record: for k (retention factor): Chiralpak HSA column, racemates.
The target in series [3] is T1, HSA Sudlow site I (Homo sapiens, UniProt P02768).
T1 construct: purchased Chiral Technologies Europe (Daicel Chemical Industries, Ltd., Osaka, Japan)
Nature of the series: Displacement chromatography (zonal elution) with warfarin as competitor. In kind it is binding. The settings on record: k decreases with rising warfarin, P < 0.05; 1/k vs competitor linear, positive slope.

The subject of series [4] is HSA. The following applies: value in brackets; cited from earlier work.
Series [5] deals with differentiated SH-SY5Y cells. The settings on record: cited from earlier work.
Series [6] deals with HSA. The settings on record: cited from earlier work.
Series [7] deals with human plasma proteins. The settings on record: racemate incubated with plasma, ultrafiltration; cited from earlier work.
For series [8], the system named is HSA. Set-up: method as in PMID 24666938. The settings on record: HPAC, immobilized HSA column; cited from earlier work.
Series [9] deals with bovine serum albumin. The following applies: spectroscopic technology; cited from earlier work.
Series [10] deals with HSA. The settings on record: literature-reported; cited from earlier work.
Setting [11] is: 100% potassium phosphate buffer 67 mM pH 7.0, 25 °C.
The mark [12] stands for this setting: from k by Eq. 4, 100% potassium phosphate buffer 67 mM pH 7.0, 25 °C.

T1 sequence (P02768 25-609): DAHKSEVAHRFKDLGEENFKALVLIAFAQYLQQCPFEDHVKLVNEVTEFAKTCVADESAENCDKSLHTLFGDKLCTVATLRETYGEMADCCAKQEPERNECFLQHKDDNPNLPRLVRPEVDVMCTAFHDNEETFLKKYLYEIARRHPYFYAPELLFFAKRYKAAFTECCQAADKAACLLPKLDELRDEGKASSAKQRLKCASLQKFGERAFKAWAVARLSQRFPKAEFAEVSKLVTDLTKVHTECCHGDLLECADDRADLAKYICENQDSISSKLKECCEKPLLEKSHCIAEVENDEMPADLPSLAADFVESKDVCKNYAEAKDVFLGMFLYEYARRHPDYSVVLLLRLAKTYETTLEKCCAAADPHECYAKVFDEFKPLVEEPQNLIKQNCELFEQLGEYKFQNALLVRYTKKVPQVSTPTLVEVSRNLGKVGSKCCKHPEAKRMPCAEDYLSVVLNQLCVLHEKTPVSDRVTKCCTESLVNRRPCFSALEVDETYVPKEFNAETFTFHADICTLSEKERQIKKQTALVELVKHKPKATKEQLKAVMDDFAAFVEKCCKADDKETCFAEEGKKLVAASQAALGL
human serum albumin (HSA), sequence (P02768 25-609): as above

As for `COc1ccc2c3c1O[C@H]1[C@@H](O)C=C[C@H]4[C@@H](C2)N(C)CC[C@@]341` [COD, codeine], the “Binding percentage to HSA” value in [1] is “about 29%”. In addition, in series [2] (setting [11]), the “k (retention factor)” value was determined as 1.89. For the same compound, the “Bound fraction (%b) to HSA” value in [2] (setting [12]) was 65%. For the same compound, the “Competition with warfarin (site I)” value in series [3] was “competition was also observed for both sites I and II”.

`CN(C)CCCN1c2ccccc2Sc2ccc(Cl)cc21` [Chlorpromazine, chlorpromazine]: in series [2] (human, pH 7), the “Bound fraction (%b) to HSA, experimental, controls” value turned out to be 98.1%. The “Bound fraction (%b) to HSA, literature value” in series [4] was above 90%.

For `CNC(C)CN1c2ccccc2Sc2ccccc21` (stereo not shown) [DMPMZ, N-desmonomethyl promethazine], the “k (retention factor)” value in [2] (setting [11]) is recorded as 16.34. Moreover, in [3], the “Competition with warfarin (site I)” value is “also compete with warfarin and (S)-ibuprofen”. The Cytotoxicity entry in series [5] was “even more cytotoxic than PMZ”.

For the compound `Cc1ncc([N+](=O)[O-])n1CCO` [Metronidazole, metronidazole], the “Bound fraction (%b) to HSA, experimental, controls” value in [2] (human, pH 7) was found to be 19.8%. Besides, the “Bound fraction (%b) to HSA, literature value” in [4] is listed as 20.0%.

As for `CC(CN1c2ccccc2Sc2ccccc21)N(C)C` (stereo not shown) [PMZ, promethazine], the “Association constant of binding to HSA” value in [6] (fluorescence and adsorption spectroscopy) is listed as 1.57 ± 0.20 × 10^4 M^−1; in [8], 1.24 ± 0.14 × 10^4 M^−1. Besides, in series [6] (fluorescence spectroscopy), the “Binding site on HSA” value was “located in site I (subdomain IIA)”. In addition, in [2] (setting [12]), the “Bound fraction (%b) to HSA” value is recorded as 98%. Also, the “Competition with warfarin (site I)” value in series [3] is “competes with warfarin”. In series [7], the “Enantioselective binding to human plasma proteins” value is on record as “evidence of the enantioselective binding”. Besides, the “Binding constant to bovine serum albumin” value in series [9] is 1.40 ± 0.04 × 10^4 M^−1.

With `CC(CN1c2ccccc2[S+]([O-])c2ccccc21)N(C)C` (stereo not shown) [PMZSO, promethazine sulphoxide], in [2] (setting [11]), the “k (retention factor)” value is listed as 3.99. In addition, the “Bound fraction (%b) to HSA” value in [2] (human, 50 µg/mL, pH 7) is listed as 80%. In series [3], the “Competition with warfarin (site I)” value was “also compete with warfarin and (S)-ibuprofen”.

For `CC(=O)CC(c1ccccc1)c1c(O)c2ccccc2oc1=O` (stereo not shown) [Warfarin, warfarin], in [10], the “Affinity constant for HSA” value was 330000 M⁻¹.
